Patent publication US9193695B2, “1, 2, 4-triazolone derivative and use thereof as an antagonist on the arginine-vasopressin 1B receptor” (TAISHO PHARMACEUTICAL CO., LTD., priority 2010, dated 2015)
Structures can show the parent of a compound that is named as a salt.

Target: T1, Human V1b receptor (Homo sapiens, UniProt P47901)
T1 sequence (P47901 1-424): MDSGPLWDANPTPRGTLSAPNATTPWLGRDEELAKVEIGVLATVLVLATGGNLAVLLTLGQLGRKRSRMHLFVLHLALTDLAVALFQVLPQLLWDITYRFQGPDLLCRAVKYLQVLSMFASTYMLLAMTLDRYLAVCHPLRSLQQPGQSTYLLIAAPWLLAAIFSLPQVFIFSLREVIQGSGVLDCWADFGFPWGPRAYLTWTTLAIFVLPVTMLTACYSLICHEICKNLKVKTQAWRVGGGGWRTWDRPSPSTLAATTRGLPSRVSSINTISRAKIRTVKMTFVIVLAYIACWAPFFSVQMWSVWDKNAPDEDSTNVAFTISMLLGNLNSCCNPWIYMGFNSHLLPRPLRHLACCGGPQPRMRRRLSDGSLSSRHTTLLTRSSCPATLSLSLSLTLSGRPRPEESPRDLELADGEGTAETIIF
Experiment: Binding test for V1b receptor ([3H]AVP displacement, crude membrane preparation)
Parameters: expressed in transfected cells; host or cells: 293FT cells (Invitrogen), transient expression; crude membrane preparation
Conditions: [3H]AVP 0.4 to 1 nmol/L; membranes of 293FT cells transiently expressing human V1b receptor; room temperature, 60 minutes
Method: Binding Test for V1b Receptor
Human V1b receptor was transiently expressed in 293FT cells (Invitrogen). The cells were collected and were homogenated in a 15 mmol/L tris-hydrochloric acid buffer (pH 7.4, containing 2 mmol/L magnesium chloride, 0.3 mmol/L ethylenediaminetetracetic acid, and 1 mmol/L glycol ether diaminetetraacetic acid). The resulting homogenate was centrifuged at 50,000×g at 4° C. for 20 minutes. The precipitate was resuspended in a 75 mmol/L tris-hydrochloric acid buffer (pH 7.4, containing 12.5 mmol/L magnesium chloride, 0.3 mmol/L ethylenediaminetetracetic acid, 1 mmol/L glycol ether diamine tetraacetic acid, and 250 mmol/L sucrose) to give a crude membrane preparation, which was stored at −80° C. until the binding test. In the binding test, the crude membrane preparation was diluted with a 50 mmol/L tris-hydrochloric acid buffer (pH 7.4, containing 10 mmol/L magnesium chloride and 0.1% bovine serum albumin), and test compound was serially diluted with DMSO. The diluted crude membrane preparation was incubated with each test compound (final concentration of 0.01 nmol/L to 1 μmol/L) and [^3H]AVP (final concentration: 0.4 to 1 nmol/L) at room temperature for 60 minutes. After the incubation, the mixture was suction filtered through a GF/C filter pretreated with 0.3% polyethyleneimine. The GF/C filter was dried, and a scintillator was added thereto. The radioactivity remaining on the filter was measured using TopCount (PerkinElmer Inc.). The radioactivity in the presence of 10 μmol/L of unlabeled AVP was defined as 0%, and the radioactivity in the absence of unlabeled AVP was defined as 100%. A dose-response curve was plotted from radioactivities in the presence of a test compound at various concentrations, and the 50% inhibitory concentration (IC50 value) of the compound was calculated.

| IC50 | Structure (SMILES) |
| --- | --- |
| < 10 nM | COc1cc(-c2nn(-c3ccc(CCN4CCSCC4)cc3)c(=O)n2CC(=O)NC(C)C)ccc1F [Ca-8, 2-[3-(4-Fluoro-3-methoxyphenyl)-5-oxo-1-{4-[2-(thiomorpholin-4-yl)ethyl]phenyl}-1,5-dihydro-4H-1,2,4-triazol-4-yl]-N-(propan-2-yl)acetamide] |
| 55 nM | CC(C)(CO)NC(=O)Cn1c(-c2cccc(Cl)c2)nn(-c2ccc(CCN3CCOCC3)cc2)c1=O [Ad-3, 2-[3-(3-Chlorophenyl)-1-{4-[2-(morpholin-4-yl)ethyl]phenyl}-5-oxo-1,5-dihydro-4H-1,2,4-triazol-4-yl]-N-(1-hydroxy-2-methylpropan-2-yl)acetamide] |
| 10 to 100 nM | COc1cc(-c2nn(-c3ccc(CCN4C[C@@H](C)O[C@@H](C)C4)cc3)c(=O)n2CC(=O)NC(C)C)ccc1F [Ca-20, 2-[1-(4-{2-[(2R,6S)-2,6-Dimethylmorpholin-4-yl]ethyl}phenyl)-3-(4-fluoro-3-methoxyphenyl)-5-oxo-1,5-dihydro-4H-1,2,4-triazol-4-yl]-N-(propan-2-yl)acetamide] |
| 10 to 100 nM | COc1cc(-c2nn(-c3ccc(CCN4CCC(F)(F)CC4)cc3)c(=O)n2CC(=O)NC(C)C)ccc1F [Ca-18, 2-[1-{4-[2-(4,4-Difluoropiperidin-1-yl)ethyl]phenyl}-3-(4-fluoro-3-methoxyphenyl)-5-oxo-1,5-dihydro-4H-1,2,4-triazol-4-yl]-N-(propan-2-yl)acetamide trifluoroacetate] |
| 17 nM | CC(C)NC(=O)Cn1c(-c2ccc(F)c(Cl)c2)nn(-c2ccc(CCN3CCCCC3)cc2)c1=O [Da-1, 2-[3-(3-Chloro-4-fluorophenyl)-5-oxo-1-{4-[2-(piperidin-1-yl)ethyl]phenyl}-1,5-dihydro-4H-1,2,4-triazol-4-yl]-N-(propan-2-yl)acetamide] |
| 56 nM | CC(C)NC(=O)Cn1c(-c2cccc(Cl)c2)nn(-c2ccc(CCN3CCC(O)C3)cc2)c1=O (centres unmarked) [Aa-6, 2-[3-(3-Chlorophenyl)-1-{4-[2-(3-hydroxypyrrolidin-1-yl)ethyl]phenyl}-5-oxo-1,5-dihydro-4H-1,2,4-triazol-4-yl]-N-(propan-2-yl)acetamide] |
| 26 nM | COc1cc(-c2nn(-c3ccc(CCN4CCCCC4)cc3)c(=O)n2CC(=O)NC(C)C)ccc1F [Ca-1, 2-[3-(4-Fluoro-3-methoxyphenyl)-5-oxo-1-{4-[2-(piperidin-1-yl)ethyl]phenyl}-1,5-dihydro-4H-1,2,4-triazol-4-yl]-N-(propan-2-yl)acetamide] |
| 100 to 1000 nM | COc1cc(-c2nn(-c3ccc(CCN4CCN(C(C)=O)CC4)cc3)c(=O)n2CC(=O)NC(C)C)ccc1F [Ca-26, 2-[1-{4-[2-(4-Acetylpiperazin-1-yl)ethyl]phenyl}-3-(4-fluoro-3-methoxyphenyl)-5-oxo-1,5-dihydro-4H-1,2,4-triazol-4-yl]-N-(propan-2-yl)acetamide trifluoroacetate] |
| 10 to 100 nM | COc1cc(-c2nn(-c3ccc(CCN4CCOCC4C)cc3)c(=O)n2CC(=O)NC(C)C)ccc1F (centres unmarked) [Ca-22, 2-[3-(4-Fluoro-3-methoxyphenyl)-1-{4-[2-(3-methylmorpholin-4-yl)ethyl]phenyl}-5-oxo-1,5-dihydro-4H-1,2,4-triazol-4-yl]-N-(propan-2-yl)acetamide] |
| 32 nM | CC(C)NC(=O)Cn1c(-c2ccc(F)c(Cl)c2)nn(-c2ccc(CCN3CC4(COC4)C3)cc2)c1=O [Da-3, 2-[3-(3-Chloro-4-fluorophenyl)-1-{4-[2-(2-oxa-6-azaspiro[3.3]hept-6-yl)ethyl]phenyl}-5-oxo-1,5-dihydro-4H-1,2,4-triazol-4-yl]-N-(propan-2-yl)acetamide] |
| 10 to 100 nM | COc1cc(-c2nn(-c3ccc(CCN4CCCC(OC)C4)cc3)c(=O)n2CC(=O)NC(C)C)ccc1F (centres unmarked) [Ca-11, 2-[3-(4-Fluoro-3-methoxyphenyl)-1-{4-[2-(3-methoxypiperidin-1-yl)ethyl]phenyl}-5-oxo-1,5-dihydro-4H-1,2,4-triazol-4-yl]-N-(propan-2-yl)acetamide] |
| 96 nM | CC(CO)NC(=O)Cn1c(-c2cccc(Cl)c2)nn(-c2ccc(CCN3CCOCC3)cc2)c1=O (racemic) [Ad-20, 2-[3-(3-Chlorophenyl)-1-{4-[2-(morpholin-4-yl)ethyl]phenyl}-5-oxo-1,5-dihydro-4H-1,2,4-triazol-4-yl]-N-(1-hydroxypropan-2-yl)acetamide] |
| 2.5 nM | CC(C)(C)NC(=O)Cn1c(-c2cccc(Cl)c2)nn(-c2ccc(CCN3CCOCC3)cc2)c1=O [Ad-1, N-Tert-Butyl-2-[3-(3-chlorophenyl)-1-{4-[2-(morpholin-4-yl)ethyl]phenyl}-5-oxo-1,5-dihydro-4H-1,2,4-triazol-4-yl]acetamide] |

The next lines start with the compound.

| Structure (SMILES) | IC50 |
| --- | --- |
| O=C(Cn1c(-c2cccc(Cl)c2)nn(-c2ccc(CCN3CCOCC3)cc2)c1=O)NC1CCC1 [Ad-4, 2-[3-(3-Chlorophenyl)-1-{4-[2-(morpholin-4-yl)ethyl]phenyl}-5-oxo-1,5-dihydro-4H-1,2,4-triazol-4-yl]-N-cyclobutylacetamide] | 102 nM |
| CC(C)NC(=O)Cn1c(-c2cccc(Cl)c2)nn(-c2ccc(CC(C)N3C4CCC3COC4)cn2)c1=O (single isomer, unassigned; (-)) [Ad-19-1] | 0.59 nM |
| CC(C)NC(=O)Cn1c(-c2cccc(Cl)c2)nn(-c2ccc(CC(C)N3CCOCC3)cn2)c1=O (centres unmarked) [Ad-15, 2-[3-(3-Chlorophenyl)-1-{5-[2-(morpholin-4-yl)propyl]pyridin-2-yl}-5-oxo-1,5-dihydro-4H-1,2,4-triazol-4-yl]-N-(propan-2-yl)acetamide] | 5.1 nM |
| COc1cccc(-c2nn(-c3ccc(CCN4C5CCC4COC5)cc3)c(=O)n2CC(=O)NC(C)C)n1 [Ja-2, 2-[3-(6-Methoxypyridin-2-yl)-1-{4-[2-(3-oxa-8-azabicyclo[3.2.1]oct-8-yl)ethyl]phenyl}-5-oxo-1,5-dihydro-4H-1,2,4-triazol-4-yl]-N-(propan-2-yl)acetamide] | 20 nM |
| COc1cccc(-c2nn(-c3ccc(CC(C)N4C5CCC4COC5)cn3)c(=O)n2CC(=O)NC(C)(C)C)c1 (centres unmarked) [Bd-4, N-Tert-Butyl-2-[3-(3-methoxyphenyl)-1-{5-[2-(3-oxa-8-azabicyclo[3.2.1]oct-8-yl)propyl]pyridin-2-yl}-5-oxo-1,5-dihydro-4H-1,2,4-triazol-4-yl]acetamide] | 0.44 nM |
| COc1cc(-c2nn(-c3ccc(CC(C)N4C5CCC4COC5)cc3)c(=O)n2CC(=O)NC(C)C)ccc1F (centres unmarked) [Cd-2, 2-[3-(4-Fluoro-3-methoxyphenyl)-1-{4-[2-(3-oxa-8-azabicyclo[3.2.1]oct-8-yl)propyl]phenyl}-5-oxo-1,5-dihydro-4H-1,2,4-triazol-4-yl]-N-(propan-2-yl)acetamide] | 0.51 nM |
| COc1cccc(-c2nn(-c3ccc(CCN4C5CCC4COC5)cn3)c(=O)n2CC(=O)NC(C)(C)C)c1 [Bd-2, N-Tert-Butyl-2-[3-(3-methoxyphenyl)-1-{5-[2-(3-oxa-8-azabicyclo[3.2.1]oct-8-yl)ethyl]pyridin-2-yl}-5-oxo-1,5-dihydro-4H-1,2,4-triazol-4-yl]acetamide] | 3.6 nM |
| CC(C)(C)NC(=O)Cn1c(-c2cccc(Cl)c2)nn(-c2ccc(CCN3C4CCC3COC4)cn2)c1=O [Ad-18, N-Tert-Butyl-2-[3-(3-chlorophenyl)-1-{5-[2-(3-oxa-8-azabicyclo[3.2.1]oct-8-yl)ethyl]pyridin-2-yl}-5-oxo-1,5-dihydro-4H-1,2,4-triazol-4-yl]acetamide] | 2.6 nM |
| COc1cc(-c2nn(-c3ccc(CCN4C5CCC4CC(O)C5)cn3)c(=O)n2CC(=O)NC(C)C)ccc1F (centres unmarked) [Cb-4, 2-[3-(4-Fluoro-3-methoxyphenyl)-1-{5-[2-(3-hydroxy-8-azabicyclo[3.2.1]oct-8-yl)ethyl]pyridin-2-yl}-5-oxo-1,5-dihydro-4H-1,2,4-triazol-4-yl]-N-(propan-2-yl)acetamide] | 8.6 nM |
| CC(C)NC(=O)Cn1c(-c2ccc(F)c(Cl)c2)nn(-c2ccc(CCN3CC4(COC4)C3)cn2)c1=O [Db-3, 2-[3-(3-Chloro-4-fluorophenyl)-1-{5-[2-(2-oxa-6-azaspiro[3.3]hept-6-yl)ethyl]pyridin-2-yl}-5-oxo-1,5-dihydro-4H-1,2,4-triazol-4-yl]-N-(propan-2-yl)acetamide] | 10 nM |
